# Laboratory results from patent US8367662B2, “Organic compounds” (Novartis AG, priority 2007, dated 2013).
# T1: human ALK5 (ALK5 T204D kinase domain) (Homo sapiens, UniProt P36897, T204D)
# T1 construct: The kinase domain of human ALK5 (amino acids 200-503); made in house; host or cells: insect cells (baculovirus)
# T1 sequence (P36897 200-503 T204D): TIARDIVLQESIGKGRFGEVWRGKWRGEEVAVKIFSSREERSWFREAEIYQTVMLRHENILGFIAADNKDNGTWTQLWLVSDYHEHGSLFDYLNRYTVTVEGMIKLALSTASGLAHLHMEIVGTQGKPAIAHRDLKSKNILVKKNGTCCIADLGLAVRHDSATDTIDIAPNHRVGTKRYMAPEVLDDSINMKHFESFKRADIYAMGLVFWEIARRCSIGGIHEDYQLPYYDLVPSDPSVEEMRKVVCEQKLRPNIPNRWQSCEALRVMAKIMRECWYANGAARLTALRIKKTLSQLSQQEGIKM
# Target: T1, human ALK5 (ALK5 T204D kinase domain)
# Assay: ALK5 kinase assay: [33P] phosphate incorporation into casein
# Assay type: biochemical
# Conditions: casein substrate, 1 μM unlabelled ATP
# Experimental: The kinase activity of ALK5 is assessed by measuring radiolabelled phosphate [33P] incorporation in to the generic substrate, casein. The kinase domain of human ALK5 (amino acids 200-503) is fused to an N-terminal histidine tag. The kinase activity of ALK5 is rendered constitutive via point mutation at amino acid 204 (threonine to aspartate modification, ALK5 T204D) and the kinase construct is engineered to be expressed from a baculovirus expression construct in insect cells. The purified, recombinantly-expressed histidine-tagged ALK5 T204D protein is dissolved at 5.4 mg/ml in 50 mM Tris-HCl pH 8.0, 150 mM NaCl, 5 mM DTT. ALK5 T204D is dissolved to 2.5 μg/ml in assay buffer (Assay buffer: 20 mM Tris-HCl pH 7.4, 10 mM MgCl2, 2 mM MnCl2) on the day of use.
# Test compounds and reference compounds are dissolved in assay buffer without DTT containing 5% (v/v) DMSO. Stock solutions of test and reference compounds are diluted in assay buffer with DTT (1.25 mM) containing 4.5% (v/v) DMSO. 10 μl of test or reference compound are added to the appropriate wells of 96 well U-bottomed plate. Total enzyme activity is determined by measuring ALK5 T204D activity in the absence of ALK5 kinase inhibitor reference compounds. Non-specific binding (NSB) is determined by measuring the activity of ALK5 T204D in the presence of ALK5 kinase inhibitor reference compounds. 10 μl of dephosphorylated casein stock solution (dephosphorylated casein is dissolved in ddH2O at 20 mg/ml) is added per well (200 μg/well final assay concentration). 20 μl of ALK5 T204D (2.5 μg/ml solution) is added per well (50 ng/well final assay concentration). The plates are left to incubate at room temperature for 10 minutes.
# 10 μl of ATP mix is added to the well to initiate the reaction (0.66 nM [^33P]ATP/1 μM unlabelled ATP/well final assay concentration). The ATP mix is prepared as follows, unlabelled ATP (3 mM) is dissolved in ddH2O and pH adjusted to 7.4. The stock concentration of [^33P]ATP is 10 μCi/μl. The appropriate volume of [^33P]ATP is added to unlabelled ATP solution such that the final assay concentration per well is 0.1 μCi. Following addition of the ATP mix, the plates are incubated at room temperature for 50 minutes. The kinase reaction is terminated by the addition of 50 μL Stop Buffer (20 mM Tris-HCl pH 7.4, 10 mM EDTA).
# 75 μ/well from the reaction plate is transferred to a Multiscreen-IP plate (MultiScreen-IP plates are prepared by added 50 μL of 70% (v/v) ethanol per well and incubated for 5 minutes at room temperature. The ethanol is removed by aspiration via a MultiScreen HTS Vaccum Manifold unit (Millipore, Cat no: MSVMHT500). The plates are washed twice by adding 200 μl/well ddH2O). The MultiScreen-IP plate is incubated at room temperature for 30 minutes to allowing binding of casein to the plate. The MultiScreen-IP plates are washed three times by adding 200 μl/well 100 mM phosphoric acid solution and the gasket is carefully removed from the back of the MultiScreen-IP plate and the plate dried in the oven for 30 minutes. The MultiScreen-IP plate is backsealed, 50 μL of Microscint®20 is added, then the plates are topsealed and radiolabelled casein detected and quantified on a TopCount™ plate-reader using the ^33P scintillation protocol.
row,Molecule,IC50 [nM]
1,"c1cncc(-c2ccn3c(-c4cccc(-n5cccn5)c4)cnc3c2)c1 [Example 1.1, 3-(3-Pyrazol-1-yl-phenyl)-7-pyridin-3-yl-imidazo[1,2-a]pyridine]",4
2,"c1ccc(-c2cc(-c3cnc4cc(-c5ccc(N6CCOCC6)nc5)ccn34)ccn2)cc1 [Example 1.5, 7-(6-Morpholin-4-yl-pyridin-3-yl)-3-(2-phenyl-pyridin-4-yl)-imidazo[1,2-a]pyridine]",8
3,"O=Cc1cccc(-c2ccn3c(-c4cccc(-n5cccn5)c4)cnc3c2)c1 [Example 1.9, 3-[3-(3-Pyrazol-1-yl-phenyl)-imidazo[1,2-a]pyridin-7-yl]-benzaldehyde]",86
4,"CNC(=O)c1cccc(-c2ccn3c(-c4ccnc(-c5cccc(F)c5)c4)cnc3c2)c1 [Example 1.13, 3-{3-[2-(3-Fluoro-phenyl)-pyridin-4-yl]-imidazo[1,2-a]pyridin-7-yl}-N-methyl-benzamide]",55
5,"Fc1cccc(-c2cc(-c3cnc4cc(-c5cccnc5)ccn34)ccn2)c1 [Example 1.17, 3-[2-(3-Fluoro-phenyl)-pyridin-4-yl]-7-pyridin-3-yl-imidazo[1,2-a]pyridine]",76
6,"CNC(=O)c1cccc(-c2ccn3c(-c4ccnc(-n5ccc(C)n5)c4)cnc3c2)c1 [Example 1.23, N-Methyl-3-{3-[2-(3-methyl-pyrazol-1-yl)-pyridin-4-yl]-imidazo[1,2-a]pyridin-7-yl}-benzamide]",77
7,"Fc1ccccc1-c1cc(-c2cnc3cc(-c4cccnc4)ccn23)ccn1 [Example 1.30, 3-[2-(2-Fluoro-phenyl)-pyridin-4-yl]-7-pyridin-3-yl-imidazo[1,2-a]pyridine]",47
8,"O=Cc1cccc(-c2ccn3c(-c4ccnc(N5CCCC5)c4)cnc3c2)c1 [Example 1.46, 3-[3-(2-Pyrrolidin-1-yl-pyridin-4-yl)-imidazo[1,2-a]pyridin-7-yl]-benzaldehyde]",52
9,COc1cc(-c2cnc3ccc(N[C@H]4CC[C@H](O)CC4)cn23)ccn1 [Example 2.2],108
10,CCOc1cc(-c2cnc3ccc(N[C@H]4CC[C@H](O)CC4)cn23)ccn1 [Example 2.7],281
11,"c1cc(-c2cnc3ccc(-c4ccoc4)cn23)cc(-c2ccoc2)n1 [Example 2.12, 6-Furan-3-yl-3-(2-Furan-3-yl-pyridin-4-yl)-imidazo[1,2-a]pyridine]",147
12,"CNC(=O)c1ccc(-c2ccc3ncc(-c4ccnc(-c5ccoc5)c4)n3c2)cc1 [Example 2.18, 4-[3-(2-Furan-3-yl-pyridin-4-yl)-imidazo[1,2-a]pyridin-6-yl]-N-methyl-benzamide]",57
13,"CS(=O)(=O)Nc1cccc(-c2ccc3ncc(-c4ccnc(-c5ccoc5)c4)n3c2)c1 [Example 2.20, N-{3-[3-(2-Furan-3-yl-pyridin-4-yl)-imidazo[1,2-a]pyridin-6-yl]-phenyl}-methanesulfonamide]",97

# Test system: dimethylnitrosamine induced liver fibrosis
# Assay: not given
# Conditions: rat, during the 3 weeks treatment; cited from earlier work
row,Molecule,side effects
1,c1ccc(-c2cc(-c3cn[nH]c3-c3ccccn3)ccn2)cc1 [GW6604],no obvious side effects

# Same assay, conditions: rat, given therapeutically, dimethylnitrosamine induced liver fibrosis; cited from earlier work
Molecule,death rate prevented [%],inhibition of extracellular matrix deposition [%]
c1ccc(-c2cc(-c3cn[nH]c3-c3ccccn3)ccn2)cc1 [GW6604],40,60

# Test system: bleomycin-treated rats
# Assay: not given
# Conditions: cited from earlier work
Molecule,lung fibrosis,number of macrophages and neutrophils in bronchoalveolar lavage
"follistatin: an antagonist of activin signalling (protein, UniProt P19883 30-344, looked up) Follistatin: GNCWLRQAKNGRCQVLYKTELSKEECCSTGRLSTSWTEEDVNDNTLFKWMIFNGGAPNCIPCKETCENVDCGPGKKCRMNKKNKPRCVCAPDCSNITWKGPVCGLDGKTYRNECALLKARCKEQPELEVQYQGRCKKTCRDVFCPGSSTCVVDQTNNAYCVTCNRICPEPASSEQYLCGNDGVTYSSACHLRKATCLLGRSIGLAYEGKCIKAKSCEDIQCTGGKKCLWDFKVGRGRCSLCDELCPDSKSDEPVCASDNATYASECAMKEAACSSGVLLEVKHSGSCNSISEDTEEEEEDEDQDYSFPISSILEW",attenuated lung fibrosis,significantly reduced
